The target in assay [1] is T1, Alpha-1D adrenergic receptor (Homo sapiens, UniProt P25100).
T1 sequence (P25100 whole entry): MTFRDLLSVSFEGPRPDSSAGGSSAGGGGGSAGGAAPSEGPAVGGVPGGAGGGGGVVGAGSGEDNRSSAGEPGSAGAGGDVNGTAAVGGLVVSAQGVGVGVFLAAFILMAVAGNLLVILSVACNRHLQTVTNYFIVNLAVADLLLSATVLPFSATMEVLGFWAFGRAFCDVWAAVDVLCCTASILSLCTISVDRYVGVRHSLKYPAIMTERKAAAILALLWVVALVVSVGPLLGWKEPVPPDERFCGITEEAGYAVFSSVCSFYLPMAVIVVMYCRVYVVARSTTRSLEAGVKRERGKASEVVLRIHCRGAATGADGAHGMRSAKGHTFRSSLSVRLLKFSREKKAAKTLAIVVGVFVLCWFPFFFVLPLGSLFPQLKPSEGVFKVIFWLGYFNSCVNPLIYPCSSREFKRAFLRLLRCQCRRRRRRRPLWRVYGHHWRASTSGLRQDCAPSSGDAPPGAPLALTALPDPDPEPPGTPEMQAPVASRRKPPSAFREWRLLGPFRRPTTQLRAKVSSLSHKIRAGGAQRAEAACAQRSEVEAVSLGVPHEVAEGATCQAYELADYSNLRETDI
Put plainly: Compound was tested for its binding affinity utilizing cloned receptor binding assays by using [125 I]HEAT as radioligand to the human Alpha-1D adrenergic receptor.

Assay [2] concerns the target T2, Alpha-1A adrenergic receptor (Rattus norvegicus, UniProt P43140).
T2 sequence (P43140 whole entry): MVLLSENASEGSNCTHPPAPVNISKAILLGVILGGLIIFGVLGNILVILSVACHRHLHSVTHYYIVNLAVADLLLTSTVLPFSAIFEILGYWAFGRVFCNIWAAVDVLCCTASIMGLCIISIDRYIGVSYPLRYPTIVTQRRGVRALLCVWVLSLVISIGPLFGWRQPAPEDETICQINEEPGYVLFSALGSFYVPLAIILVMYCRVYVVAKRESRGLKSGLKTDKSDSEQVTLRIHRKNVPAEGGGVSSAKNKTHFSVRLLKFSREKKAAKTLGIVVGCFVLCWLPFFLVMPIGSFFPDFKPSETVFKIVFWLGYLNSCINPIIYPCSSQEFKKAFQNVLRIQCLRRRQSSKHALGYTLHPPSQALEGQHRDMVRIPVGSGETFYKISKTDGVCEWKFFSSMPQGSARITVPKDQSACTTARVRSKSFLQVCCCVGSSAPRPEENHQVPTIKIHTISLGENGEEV
Put plainly: Compound was tested for the tissue binding affinity using [3H]- Prazosin as radioligand to the rat prostate Alpha-1A adrenergic receptor subtype.

For assay [3], the target named is T3, Alpha-1D adrenergic receptor (Rattus norvegicus, UniProt P23944).
T3 sequence (P23944 whole entry): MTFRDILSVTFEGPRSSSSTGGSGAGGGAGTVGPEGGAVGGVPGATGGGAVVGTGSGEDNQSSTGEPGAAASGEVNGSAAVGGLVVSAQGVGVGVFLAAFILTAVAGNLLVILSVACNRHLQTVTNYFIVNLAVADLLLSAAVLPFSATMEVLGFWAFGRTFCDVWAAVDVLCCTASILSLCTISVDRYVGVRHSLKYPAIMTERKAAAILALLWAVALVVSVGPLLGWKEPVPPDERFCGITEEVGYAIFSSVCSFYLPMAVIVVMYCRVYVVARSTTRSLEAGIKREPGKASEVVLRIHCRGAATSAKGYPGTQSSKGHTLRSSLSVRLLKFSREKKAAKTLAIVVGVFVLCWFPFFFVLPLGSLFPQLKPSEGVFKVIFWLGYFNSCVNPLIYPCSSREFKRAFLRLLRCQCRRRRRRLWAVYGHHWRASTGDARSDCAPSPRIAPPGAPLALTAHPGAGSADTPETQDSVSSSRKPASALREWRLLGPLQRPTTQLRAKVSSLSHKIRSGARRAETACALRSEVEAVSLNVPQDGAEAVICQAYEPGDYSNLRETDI
Put plainly: Compound was evaluated for its ability to displace [125I]HEAT binding from rat Alpha-1D adrenergic receptor.

Assay [4] concerns the target T2, Alpha-1A adrenergic receptor. Put plainly: Compound was evaluated for its ability to displace [125I]HEAT binding from rat Alpha-1A adrenergic receptor.
Assay [5] addresses T4, Alpha-1A adrenergic receptor (Homo sapiens, UniProt P35348).
T4 sequence (P35348 whole entry): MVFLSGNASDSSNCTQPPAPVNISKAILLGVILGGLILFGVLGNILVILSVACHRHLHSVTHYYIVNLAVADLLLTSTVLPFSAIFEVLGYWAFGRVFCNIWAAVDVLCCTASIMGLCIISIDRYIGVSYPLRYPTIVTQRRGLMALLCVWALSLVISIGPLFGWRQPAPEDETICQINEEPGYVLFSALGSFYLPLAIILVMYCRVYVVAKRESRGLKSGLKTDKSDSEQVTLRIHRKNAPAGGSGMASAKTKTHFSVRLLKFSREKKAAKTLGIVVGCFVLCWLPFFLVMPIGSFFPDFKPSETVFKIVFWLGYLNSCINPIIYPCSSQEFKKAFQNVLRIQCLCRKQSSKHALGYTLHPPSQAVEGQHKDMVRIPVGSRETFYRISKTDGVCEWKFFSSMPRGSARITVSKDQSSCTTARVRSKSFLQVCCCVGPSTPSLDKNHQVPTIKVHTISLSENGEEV
Put plainly: Compound was tested for its binding affinity utilizing cloned receptor binding assays by using [125 I]HEAT as radioligand to the human Alpha-1A adrenergic receptor.

Assay [6] concerns the target T5, Alpha-1B adrenergic receptor (Rattus norvegicus, UniProt P15823).
T5 sequence (P15823 whole entry): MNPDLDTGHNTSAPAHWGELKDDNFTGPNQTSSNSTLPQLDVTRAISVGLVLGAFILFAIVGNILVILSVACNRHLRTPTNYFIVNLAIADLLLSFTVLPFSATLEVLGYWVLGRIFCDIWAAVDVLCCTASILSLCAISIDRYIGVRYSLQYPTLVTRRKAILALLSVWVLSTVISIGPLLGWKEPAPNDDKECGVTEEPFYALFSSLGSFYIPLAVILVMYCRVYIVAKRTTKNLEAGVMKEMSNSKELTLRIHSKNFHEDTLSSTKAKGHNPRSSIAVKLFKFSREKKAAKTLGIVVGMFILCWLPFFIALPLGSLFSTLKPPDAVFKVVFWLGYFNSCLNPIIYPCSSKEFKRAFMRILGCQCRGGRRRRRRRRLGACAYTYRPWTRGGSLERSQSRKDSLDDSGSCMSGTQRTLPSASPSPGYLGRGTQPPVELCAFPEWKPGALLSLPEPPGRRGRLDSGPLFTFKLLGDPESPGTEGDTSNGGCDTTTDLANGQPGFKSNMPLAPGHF
Put plainly: Compound was tested for the tissue binding affinity using [3H]- Prazosin as radioligand to the rat liver Alpha-1B adrenergic receptor.

In assay [7] the target is T5, Alpha-1B adrenergic receptor. Put plainly: Compound was tested for the tissue binding affinity using [3H]- Prazosin as radioligand to the rat spleen Alpha-1B adrenergic receptor subtype. Type of assay: tissue-based.
The target is the same in assay [8]. Put plainly: Compound was evaluated for its ability to displace [125I]HEAT binding from rat Alpha-1B adrenergic receptor.
Assay [9] deals with T6, Alpha-1B adrenergic receptor (Homo sapiens, UniProt P35368).
T6 sequence (P35368 whole entry): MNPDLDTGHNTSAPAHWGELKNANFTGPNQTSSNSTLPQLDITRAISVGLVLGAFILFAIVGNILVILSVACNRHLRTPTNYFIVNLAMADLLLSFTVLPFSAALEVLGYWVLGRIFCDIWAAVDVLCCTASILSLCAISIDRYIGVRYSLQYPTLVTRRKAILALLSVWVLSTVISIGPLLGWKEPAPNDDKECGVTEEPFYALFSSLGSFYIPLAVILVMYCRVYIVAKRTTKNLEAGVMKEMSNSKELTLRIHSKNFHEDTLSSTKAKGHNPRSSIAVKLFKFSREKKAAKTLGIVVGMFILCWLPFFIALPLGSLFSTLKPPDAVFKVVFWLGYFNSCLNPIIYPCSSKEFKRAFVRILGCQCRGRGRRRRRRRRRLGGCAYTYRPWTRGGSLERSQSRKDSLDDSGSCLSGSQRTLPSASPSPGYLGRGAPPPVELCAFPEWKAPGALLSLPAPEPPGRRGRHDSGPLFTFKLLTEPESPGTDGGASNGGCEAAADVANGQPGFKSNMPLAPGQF
Put plainly: Compound was tested for the tissue binding affinity using [125I]- HEAT as radioligand to the human aorta Alpha-1B adrenergic receptor. Type of assay: tissue-based.

Assay [10] addresses T6, Alpha-1B adrenergic receptor. Put plainly: Compound was tested for the tissue binding affinity using [125I]- HEAT as radioligand to the human aorta Alpha-1B adrenergic receptor subtype. Type of assay: tissue-based.
Assay [11] has the same target. Put plainly: Compound was tested for its binding affinity utilizing cloned receptor binding assays by using [125 I]HEAT as radioligand to the human Alpha-1B adrenergic receptor.
Assay [12] concerns the target T4, Alpha-1A adrenergic receptor. Put plainly: Compound was tested for the tissue binding affinity using [3H]- Prazosin as radioligand to the human prostate Alpha-1A adrenergic receptor subtype.
The target of assay [13] is T1, Alpha-1D adrenergic receptor. Put plainly: Compound was tested for binding affinity utilizing cloned receptor binding assays by using [125 I]HEAT as radioligand to the human Alpha-1D adrenergic receptor.
For assay [14], the target named is T4, Alpha-1A adrenergic receptor. Put plainly: Compound was tested for binding affinity utilizing cloned receptor binding assays by using [125 I]HEAT as radioligand to the human Alpha-1A adrenergic receptor.
Assay [15] addresses T6, Alpha-1B adrenergic receptor. Put plainly: Compound was tested for binding affinity utilizing cloned receptor binding assays by using [125 I]HEAT as radioligand to the human Alpha-1B adrenergic receptor.
Assay [16] addresses T4, Alpha-1A adrenergic receptor. Put plainly: Compound was tested for the tissue binding affinity using [3H]- Prazosin as radioligand to the human prostate Alpha-1A adrenergic receptor subtype.
In assay [17] the target is T6, Alpha-1B adrenergic receptor. Put plainly: Compound was tested for its binding affinity utilizing cloned receptor binding assays by using [125 I]HEAT as radioligand to the human Alpha-1B adrenergic receptor (n >= 2).
Assay [18] concerns the target T2, Alpha-1A adrenergic receptor. Put plainly: Compound was tested for the tissue binding affinity using [3H]- Prazosin as radioligand to the rat prostate Alpha-1A adrenergic receptor subtype.
In assay [19] the target is T5, Alpha-1B adrenergic receptor. Put plainly: Compound was tested for the tissue binding affinity using [3H]- Prazosin as radioligand to the rat spleen Alpha-1B adrenergic receptor subtype. Type of assay: tissue-based.

The values that follow come from ChEMBL document CHEMBL1131601, “4-Amino-2-[4-[1-(benzyloxycarbonyl)-2(S)- [[(1,1-dimethylethyl)amino]carbonyl]-piperazinyl]-6, 7-dimethoxyquinazoline (L-765,314): a potent and selective alpha1b adrenergic receptor antagonist” (J Med Chem, 1998).

With `COc1cc2nc(N3CCN(C(=O)OCc4ccccc4)[C@H](C(=O)NC(C)(C)C)C3)nc(N)c2cc1OC` [L-765314], the Ki – broadly, a measure of affinity in units of concentration, obtained from inhibition or displacement – in [1] amounted to 0.034 µM; in assay [3], 0.05 µM; in assay [4], 0.5 µM; in [5] it was 0.42 µM; in [8], 0.0054 µM; in assay [11], 0.002 µM. Moreover, the IC50 (usually the point on the concentration scale where inhibition reaches its midpoint) in [2] was 0.34 µM; in assay [6], 0.0093 µM; in [7], 0.0093 µM; in assay [9], 5.8 µM; in assay [10] it was 0.0088 µM; in [12], 0.59 µM.

Consider `COc1cc2nc(N3CCN[C@H](C(=O)NC(C)(C)C)C3)nc(N)c2cc1OC`, for which the Ki was determined as 0.63 µM in assay [3]; 0.51 µM in assay [4]; 0.25 µM in [13]; 0.83 µM in assay [14]; 1.5 µM in [8]; 0.025 µM in [15]. Also, the IC50 in assay [6] amounted to 2.7 µM; in assay [7] it was 1.5 µM; in [10], 0.031 µM; in [16], 1.7 µM.

`COc1ccccc1N1CCN(CCN2C(=O)CC3(CCCC3)CC2=O)CC1` [BMY-7378]: the values for the Ki in [8] and in assay [17] were 0.328 µM and 0.191 µM, respectively.

As for `COc1cc2nc(N3CCN(C(=O)C4CCCO4)CC3)nc(N)c2cc1OC` (configuration not stated) [TERAZOSIN], the Ki was 0.002 µM in assay [1], 0.0034 µM in [3] and 0.0019 µM in [8].

As for `COc1cc2nc(N3CCN(C(=O)c4ccco4)[C@H](C(=O)NC(C)(C)C)C3)nc(N)c2cc1OC`, the half-inhibitory concentration (IC50) in assay [18] was 2 µM; in assay [6], 0.015 µM; in assay [19], 0.014 µM; in [12], 1.9 µM. Moreover, the Ki in assay [3] worked out at 0.078 µM; in assay [4] it was 0.58 µM; in assay [13], 0.073 µM; in assay [14] it was 1.7 µM; in assay [8] it was 0.007 µM; in assay [15] it was 0.0035 µM.
